Measurements as given in patent publication US7205295B2, “Benzoxazin-3-ones and derivatives thereof as therapeutic agents” (Warner-Lambert Company LLC, priority 2002, dated 2007).

Target: T1, PI3Kγ (p101/p110γ protein) (Homo sapiens, UniProt P48736)
T1 construct: HA; made in house; host or cells: Spodoptera frugiperda (Sf9) cells, baculovirus co-infection
Assay: PI3Kγ In Vitro Kinase Assay
Type: biochemical
Conditions: purified recombinant p101/p110γ with G protein β1/γ2 subunits; 20 μM ATP, 25 μM PIP2; 20 minutes at room temperature
Method: Spodtera frugiperda cells, grown in ESF921 media, were coinfected with baculovirus expressing a glu-tagged p101 and baculovirus expressing an HA-tagged p110γ, at a 3:1 ratio of p101 baculovirus to p110γ baculovirus. Sf9 cells were grown to 1×10^7 total cells/mL in 10L bioreactors and harvested 48-72 hours post infection. Samples of infected cells were then tested for expression of p101/p110γ PI3 kinase by immunoprecipitation and Western Blot analysis methods (see below). […] NaCl was added to 150 mM, and sodium cholate was added to 1% and mixed for another 45 minutes. The lysates were clarified by centrifugation for 25 minutes at 14,000 rpm. The lysates were then loaded over anti-glu-linked Protein-G Sepaharose beads (Covance Research Products, Richmond, Calif.) using 20 mL resin/50 g cell paste. […] PI3Kγ was eluted with 6 column volumes of wash buffer that contain 100 μg/mL of a peptide that competes for binding of the glu tag. […] The fractions were stored at -80° C. until further use. Spodtera frugiperda cells were coinfected with baculovirus expressing a glu-tagged G protein β1 and baculovirus expressing a G protein […] at a 1:1 ratio of glu-tagged G protein β1 baculovirus to G protein β2 baculovirus. Sf9 cells are grown in 10 L bioreactors and harvested 48-72 hours post infection. Samples of infected cells were tested for G protein β1/β2 expression by Western Blot analysis, as described below. Cell lysates were homogenized and loaded onto a column of glu-tagged beads as in Biological Example 1 and competed off the column with a glu peptide as described in Biological Example 1. The inhibitory properties of the compounds in Table 1 were assayed in an in vitro PI3K assay. In a 96-well polypropylene plate, each well was spotted with 2 μL of […] the desired final concentration of compound in DMSO. Purified recombinant p101/p110γ protein (0.03 μg; 2.7 nM) and G protein β1/γ2 subunits (0.09 μg; 57.7 nM) for each reaction was combined in the assay buffer (30 mM HEPES, 100 mM NaCl, 1 mM EGTA, and 1 mM DTT). ATP and [γ-^32P-ATP] (0.09 μCi) were added to this mixture so that the final ATP concentration in the reaction was 20 μM. Lipid micelles were formed by sonicating phosphatidylinositol-4,5-diphosphate (PIP2), phosphatidylethanolamine (PE), and Na-cholate in the assay buffer for 10 minutes, adding MgCL2 and incubating on ice for 20 minutes, for final concentrations of 25 μM PIP2, 300 [M PE, 0.02% Na-cholate, and 10 mM MgCl2 in the reaction. The reactions were started by adding equal volumes lipid and enzyme mixture in a total volume of 50 μL, allowed to run for 20 minutes at room temperature, and stopped with 100 μL 75 mM H3PO4. The lipid product was transferred to a glass fiber filter plate and washed with 75 mM H3PO4 several times. The presence of radioactive lipid product (PIP3) was measured by adding Wallac Optiphase mix to each well and counting in a Wallac 1450 Trilux plate reader (PerkinElmer Life Sciences Inc., Boston, Mass. 02118).

T1 sequence (P48736 whole entry, species assumed): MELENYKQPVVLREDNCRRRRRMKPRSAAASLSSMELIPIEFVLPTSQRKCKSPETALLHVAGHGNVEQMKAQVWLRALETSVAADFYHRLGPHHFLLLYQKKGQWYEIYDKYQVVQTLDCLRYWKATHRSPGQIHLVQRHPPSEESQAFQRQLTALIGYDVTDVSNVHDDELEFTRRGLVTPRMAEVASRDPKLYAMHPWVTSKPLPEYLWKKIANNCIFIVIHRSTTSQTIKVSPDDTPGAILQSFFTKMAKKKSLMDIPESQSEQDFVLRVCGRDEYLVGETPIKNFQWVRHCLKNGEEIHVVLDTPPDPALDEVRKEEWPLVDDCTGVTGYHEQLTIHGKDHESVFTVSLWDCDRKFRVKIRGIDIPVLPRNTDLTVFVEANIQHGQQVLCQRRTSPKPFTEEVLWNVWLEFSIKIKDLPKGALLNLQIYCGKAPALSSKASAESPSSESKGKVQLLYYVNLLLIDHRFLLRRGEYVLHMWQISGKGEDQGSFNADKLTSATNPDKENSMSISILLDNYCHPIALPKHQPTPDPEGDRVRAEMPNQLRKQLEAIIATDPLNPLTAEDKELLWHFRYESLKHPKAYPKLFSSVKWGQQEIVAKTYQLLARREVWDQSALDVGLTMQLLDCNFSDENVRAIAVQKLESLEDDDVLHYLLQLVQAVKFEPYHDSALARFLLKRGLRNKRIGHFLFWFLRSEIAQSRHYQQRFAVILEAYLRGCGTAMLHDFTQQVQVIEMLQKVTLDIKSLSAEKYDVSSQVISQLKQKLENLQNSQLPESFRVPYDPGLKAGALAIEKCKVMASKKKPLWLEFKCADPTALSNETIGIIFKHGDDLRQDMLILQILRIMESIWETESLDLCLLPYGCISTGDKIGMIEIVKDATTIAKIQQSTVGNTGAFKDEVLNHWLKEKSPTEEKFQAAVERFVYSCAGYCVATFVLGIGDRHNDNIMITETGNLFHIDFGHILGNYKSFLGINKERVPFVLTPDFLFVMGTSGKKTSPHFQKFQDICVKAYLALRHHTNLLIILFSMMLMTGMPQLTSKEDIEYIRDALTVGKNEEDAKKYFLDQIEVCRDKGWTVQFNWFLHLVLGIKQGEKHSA
T1 sequence (Q8WYR1 whole entry partner, species assumed): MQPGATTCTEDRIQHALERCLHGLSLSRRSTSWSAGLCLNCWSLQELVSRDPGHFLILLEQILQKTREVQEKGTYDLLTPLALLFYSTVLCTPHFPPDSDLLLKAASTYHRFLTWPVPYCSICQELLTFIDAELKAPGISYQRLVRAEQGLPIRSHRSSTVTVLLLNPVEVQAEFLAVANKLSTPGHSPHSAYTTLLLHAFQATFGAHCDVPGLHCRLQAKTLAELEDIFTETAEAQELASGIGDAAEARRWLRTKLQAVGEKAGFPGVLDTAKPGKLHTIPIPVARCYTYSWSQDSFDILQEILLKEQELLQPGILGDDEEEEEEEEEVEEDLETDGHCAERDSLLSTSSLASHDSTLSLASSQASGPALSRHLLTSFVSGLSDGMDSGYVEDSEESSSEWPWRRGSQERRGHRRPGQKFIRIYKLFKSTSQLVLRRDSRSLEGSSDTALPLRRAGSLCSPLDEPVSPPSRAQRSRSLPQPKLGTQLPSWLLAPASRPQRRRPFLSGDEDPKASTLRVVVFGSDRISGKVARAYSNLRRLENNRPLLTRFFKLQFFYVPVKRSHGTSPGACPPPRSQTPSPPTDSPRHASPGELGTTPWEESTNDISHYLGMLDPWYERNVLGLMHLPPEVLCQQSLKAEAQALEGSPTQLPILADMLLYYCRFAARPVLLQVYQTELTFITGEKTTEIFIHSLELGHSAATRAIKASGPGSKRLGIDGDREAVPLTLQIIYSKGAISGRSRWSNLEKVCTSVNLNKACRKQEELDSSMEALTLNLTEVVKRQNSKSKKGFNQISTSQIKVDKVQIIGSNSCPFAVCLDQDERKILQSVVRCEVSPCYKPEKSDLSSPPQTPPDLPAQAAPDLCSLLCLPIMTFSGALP

Row | IC50 [nM] | Compound
1 | 35 | O=C1NC(=S)SC1=Cc1cc(F)c2c(c1)N(Cc1ccc(Cl)c(C(F)(F)F)c1)C(=O)CO2 [Example 233, 4-(4-Chloro-3-trifluoromethyl-benzyl)-8-fluoro-6-(4-oxo-2-thioxo-thiazolidin-5-ylidenemethyl)-4H-1,4-benzoxazin-3-one]
2 | 50 | COC(=O)c1nc(CN2C(=O)COc3ccc(C=C4SC(=S)NC4=O)cc32)ncc1OC [Example 231, 5-Methoxy-2-[3-oxo-6-(4-oxo-2-thioxo-thiazolidin-5-ylidenemethyl)-2,3-dihydro-1,4-benzoxazin-4-ylmethyl]-pyrimidine-4-carboxylic acid methyl ester]
3 | 11 | CS(=O)(=O)c1cccc(CN2C(=O)COc3ccc(/C=C4\SC(=S)NC4=O)cc32)c1 [Example 270, 4-(3-Methanesulfonyl-benzyl)-6-[4-oxo-2-thioxo-thiazolidin-(5Z)-ylidenemethyl]-4H-benzo[1,4]oxazin-3-one]
4 | 3700 | O=C1COc2ccc(C=C3SC(=S)N(c4ccccc4)C3=O)cc2N1Cc1ccc(Cl)s1 [Example 316, 4-(5-Chloro-thiophen-2-ylmethyl)6-(4-oxo-3-phenyl-2-thioxo-thiazolidin-5-ylidenemethyl)-4H-benzo[1,4]oxazin-3-one]
5 | 2 | CC(C)(C)c1ccc(CN2C(=O)COc3ccc(C=C4SC(=S)NC4=O)cc32)cc1 [Example 36, 4-(4-tert-Butyl-benzyl)-6-(4-oxo-2-thioxo-thiazolidin-5-ylidenemethyl)-4H-1,4-benzoxazin-3-one]
6 | 16 | CC(C)(O)c1cc(CN2C(=O)COc3ccc(C=C4SC(=O)NC4=O)cc32)ccc1F [Example 305, 5-{4-[4-Fluoro-3-(1-hydroxy-1-methyl-ethyl)-benzyl]-3-oxo-3,4-dihydro-2H-benzo[1,4]oxazin-6-ylmethylene}-thiazolidine-2,4-dione]
7 | 20 | Cc1cc(CN2C(=O)COc3ccc(C=C4SC(=S)NC4=O)cc32)cc(C)n1 [Example 229, 4-(2,6-Dimethyl-pyridin-4-ylmethyl)-6-(4-oxo-2-thioxo-thiazolidin-5-ylidenemethyl)-4H-1,4-benzoxazin-3-one]
8 | 60 | COc1cc(CN2C(=O)COc3ccc(C=C4SC(=S)NC4=O)cc32)cc(OC)n1 [Example 206, 4-(2,6-Dimethoxy-pyridin-4-ylmethyl)-6-(4-oxo-2-thioxo-thiazolidin-5-ylidenemethyl)-4H-benzo[1,4]oxazine-3-one]
9 | 28 | O=C1NC(=S)SC1=Cc1ccc2c(c1)N(Cc1ccc(C(F)(F)F)cc1)C(=O)CO2 [Example 158, 6-(4-Oxo-2-thioxo-thiazolidin-5-ylidenemethyl)-4-(4-trifluoromethyl-benzyl)-4H-1,4-benzoxazin-3-one]
10 | 21 | O=C1NC(=S)SC1=Cc1ccc2c(c1)N(Cc1cccc(OC(F)(F)F)c1)C(=O)CO2 [Example 156, 6-(4-Oxo-2-thioxo-thiazolidin-5-ylidenemethyl)-4-(3-trifluoromethoxy-benzyl)-4H-1,4-benzoxazin-3-one]
11 | 4640 | C/C(=C1/SC(=S)NC1=O)c1ccc2c(c1)NC(=O)CO2 [Example 268, 6-{1-[4-Oxo-2-thioxo-thiazolidin-(5Z)-ylidene]-ethyl}-4H-benzo[1,4]oxazin-3-one]
12 | 7 | CC(C)(C)c1cc(CN2CCOCC2)cc(CN2C(=O)COc3ccc(/C=C4\SC(=S)NC4=O)cc32)c1 [Example 278, 4-(3-tert-Butyl-5-morpholin-4-ylmethyl-benzyl)-6-[4-oxo-2-thioxo-thiazolidin-(5Z)-ylidenemethyl]-4H-benzo[1,4]oxazin-3-one]
13 | 10 | CC(=O)Oc1c(C)cc(CN2C(=O)COc3ccc(C=C4SC(=S)NC4=O)cc32)cc1C [Example 126, Acetic acid 2,6-dimethyl-4-{3-[3-oxo-6-(4-oxo-2-thioxo-thiazolidin-5-ylidenemethyl)-2,3-dihydro-benzo[1,4]oxazin-4-yl]-methyl}-phenyl ester]
14 | 13 | O=C1NC(=S)SC1=Cc1ccc2c(c1)N(Cc1cccc(OC(F)F)c1)C(=O)CO2 [Example 164, 4-(3-Difluoromethoxy-benzyl)-6-(4-oxo-2-thioxo-thiazolidin-5-ylidenemethyl)-4H-1,4-benzoxazin-3-one]
15 | 3 | Cc1cc(C)cc(CN2C(=O)COc3c(C)cc(C=C4SC(=S)NC4=O)cc32)c1 [Example 28, 4-(3,5-Dimethyl-benzyl)-8-methyl-6-(4-oxo-2-thioxo-thiazolidin-5-ylidenemethyl)-4H-1,4-benzoxazin-3-one]
16 | 10 | O=C1NC(=S)SC1=Cc1cc(Cl)c2c(c1)N(Cc1ccccc1)C(=O)CO2 [Example 50, 4-Benzyl-8-chloro-6-(4-oxo-2-thioxo-thiazolidin-5-ylidenemethyl)-4H-1,4-benzoxazin-3-one]
17 | 29 | O=C1NC(=S)SC1=Cc1ccc2c(c1)N(Cc1ccccc1)C(=O)CS2 [Example 81, 4-Benzyl-6-(4-oxo-2-thioxo-thiazolidin-5-ylidenemethyl)-4H-1,4-benzothiazin-3-one]
18 | 2070 | CC(C)(C)c1cc(C(C)(C)C)nc(CN2C(=O)COc3ccc(CC4SC(=S)NC4=O)cc32)n1 (stereo not shown) [Example 234, 4-(4,6-Di-tert-butyl-pyrimidin-2-ylmethyl)-6-(4-oxo-2-thioxo-thazolidin-5-ylmethyl)-4H-benzo[1,4]oxazin-3-one]
19 | 7 | O=C1NC(=S)OC1=Cc1ccc2c(c1)N(Cc1ccc(Cl)c(Cl)c1)C(=O)CO2 [Example 191, 4-(3,4-Dichloro-benzyl)-6-(4-oxo-2-thioxo-oxazolidin-5-ylidenemethyl)-4H-1,4-benzoxazin-3-one]
20 | 43 | Cc1cc(CN2C(=O)COc3ccc(C=C4SC(=O)NC4=O)cc32)cc(C)n1 [Example 230, 5-[4-(2,6-Dimethyl-pyridin-4-ylmethyl)-3-oxo-3,4-dihydro-2H-1,4-benzoxazin-6-ylmethylene]-thiazolidine-2,4-dione]
21 | 61 | O=C1NC(=S)SC1=Cc1ccc2c(c1)N(Cc1ccc(-c3ccccc3)cc1)C(=O)CO2 [Example 9, 4-Biphenyl-4-ylmethyl-6-(4-oxo-2-thioxo-thiazolidin-5-ylidenemethyl)-4H-1,4-benzoxazin-3-one]
22 | 16 | O=C1NC(=S)S/C1=C\c1ccc2c(c1)N(Cc1ccc(I)cc1)C(=O)CO2 [Example 287, 4-(4-Iodo-benzyl)-6-[4-oxo-2-thioxo-thiazolidin-(5Z)-ylidenemethyl]-4H-benzo[1,4]oxazin-3-one]
23 | 3 | O=C1NC(=S)SC1=Cc1ccc2c(c1)N(Cc1ccc(CN3CCOCC3)cc1)C(=O)CO2 [Example 20, 4-(4-Morpholin-4-ylmethyl-benzyl)-6-(4-oxo-2-thioxo-thiazolidin-5-ylidenemethyl)-4H-1,4-benzoxazin-3-one]
24 | 20 | O=C1NC(=S)SC1=Cc1ccc2c(c1)N(Cc1ccccc1OC(F)(F)F)C(=O)CO2 [Example 166, 6-(4-Oxo-2-thioxo-thiazolidin-5-ylidenemethyl)-4-(2-trifluoromethoxy-benzyl)-4H-1,4-benzoxazin-3-one]
25 | 30 | Cc1cc(C#N)cc(CN2C(=O)COc3ccc(C=C4SC(=S)NC4=O)cc32)c1 [Example 120]
26 | 70 | CC(C)(C)OC(=O)CNC(=O)c1cc(CN2C(=O)COc3ccc(C=C4SC(=S)NC4=O)cc32)cc(C(C)(C)C)c1 [Example 59, {3-tert-Butyl-5-[3-oxo-6-(4-oxo-2-thioxo-thiazolidin-5-ylidenemethyl)-2,3-dihydro-1,4-benzoxazin-4-ylmethyl]-benzoylamino}-acetic acid tert-butyl ester]
27 | 25 | CC(C)(C)c1cc(CN2C(=O)COc3ccc(C=C4SC(=S)NC4=O)cc32)cc(C(=O)N2CCOCC2)c1 [Example 275, 4-[3-tert-Butyl-5-(morpholine-4-carbonyl)-benzyl]-6-(4-oxo-2-thioxo-thiazolidin-5-ylidenemethyl)-4H-1,4-benzoxazin-3-one; compound with ethane-1,2-diamine]
28 | 328 | Cc1cc(C=C2SC(=S)NC2=O)c(C)c2c1OCC(=O)N2 [Example 16, 5,8-Dimethyl-6-(4-oxo-2-thioxo-thiazolidin-5-ylidenemethyl)-4H-benzo[1,4]oxazin-3-one]
